Source: paper PMC2748668 (Pharmacological research : the official journal of the …, 2009)
Read-outs that look alike come from different tables or passages of the source.

Columns and labels:
human OATP1B1 [1] = biological target: T1, human OATP1B1 (Homo sapiens, UniProt Q9Y6L6); assay: cell-based
T1 sequence (Q9Y6L6 1-691): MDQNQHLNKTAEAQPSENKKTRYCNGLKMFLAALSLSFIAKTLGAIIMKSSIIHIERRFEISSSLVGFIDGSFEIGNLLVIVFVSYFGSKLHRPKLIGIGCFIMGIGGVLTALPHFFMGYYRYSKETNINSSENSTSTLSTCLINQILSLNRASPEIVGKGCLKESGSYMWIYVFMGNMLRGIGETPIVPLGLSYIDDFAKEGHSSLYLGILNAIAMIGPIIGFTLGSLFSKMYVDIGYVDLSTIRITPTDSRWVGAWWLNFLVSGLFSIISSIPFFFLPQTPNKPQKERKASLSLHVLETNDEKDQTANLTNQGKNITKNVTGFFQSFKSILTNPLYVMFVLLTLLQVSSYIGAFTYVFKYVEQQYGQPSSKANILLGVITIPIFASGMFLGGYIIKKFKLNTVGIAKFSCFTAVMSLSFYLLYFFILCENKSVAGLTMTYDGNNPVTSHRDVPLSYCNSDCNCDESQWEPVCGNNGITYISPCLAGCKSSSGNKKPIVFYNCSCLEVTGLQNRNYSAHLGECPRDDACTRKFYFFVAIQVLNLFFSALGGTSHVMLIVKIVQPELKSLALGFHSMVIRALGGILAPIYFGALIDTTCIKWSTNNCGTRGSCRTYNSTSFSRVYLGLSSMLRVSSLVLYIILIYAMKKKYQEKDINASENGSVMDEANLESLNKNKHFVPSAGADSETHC

human OATP1B1 [2] = biological target: T1, human OATP1B1; assay: Inhibition kinetic studies
human OATP1B1 [3] = biological target: T1, human OATP1B1
Oatp1a5 = conditions: estrone-3-sulfate as substrate of Oatp1a5; cited from earlier work
OATP1B1 = conditions: estrone-3-sulfate as substrate of OATP1B1; cited from earlier work

Row | Ki (human OATP1B1 [1]) | SMILES | other results
1 | – | C[C@H](CCC(=O)NCCS(=O)(=O)O)[C@H]1CC[C@H]2[C@@H]3[C@H](O)C[C@@H]4C[C@H](O)CC[C@]4(C)[C@H]3C[C@H](O)[C@]12C [Taurocholic acid] | Ki (human OATP1B1 [2]): 11.4 ± 3.2 µM
2 | 3.2 ± 0.5 µM | C[C@H](CCC(=O)O)[C@H]1CC[C@H]2[C@@H]3CC[C@@H]4C[C@H](O)CC[C@]4(C)[C@H]3C[C@H](O)[C@]12C [Deoxycholic acid] | –
3 | 45.2 ± 5.9 µM | CC(C)(Oc1ccc(CCNC(=O)c2ccc(Cl)cc2)cc1)C(=O)O [Bezafibrate] | –
4 | 22.2 ± 3.9 µM | C[C@H](CCC(=O)NCC(=O)O)[C@H]1CC[C@H]2[C@@H]3[C@H](O)C[C@@H]4C[C@H](O)CC[C@]4(C)[C@H]3C[C@H](O)[C@]12C [Glycocholic acid] | –
5 | – | CC(C)c1onc(-c2c(Cl)cccc2Cl)c1COc1ccc(/C=C/c2cccc(C(=O)O)c2)c(Cl)c1 [GW4064] | Ki (human OATP1B1 [3]): 32.4 ± 6.7 µM
6 | 12.7 ± 1.9 µM | CC[C@H](C)C(=O)O[C@H]1C[C@@H](C)C=C2C=C[C@H](C)[C@H](CC[C@@H]3C[C@@H](O)CC(=O)O3)[C@H]21 [Mevinolin] | –
7 | 29.7 ± 5.7 µM | C[C@H](CCC(=O)O)[C@H]1CC[C@H]2[C@@H]3C(=O)C[C@@H]4CC(=O)CC[C@]4(C)[C@H]3CC(=O)[C@]12C [Dehydrocholic acid] | –
8 | 105 ± 26.7 µM | CC(C)OC(=O)C(C)(C)Oc1ccc(C(=O)c2ccc(Cl)cc2)cc1 [Fenofibrate] | –
9 | – | CN(CCOc1ccc(C[C@H](Nc2ccccc2C(=O)c2ccccc2)C(=O)O)cc1)c1ccccn1 [GW1929] | Ki (human OATP1B1 [3]): 0.3 ± 0.05 µM
10 | – | C[C@]12CC[C@@H]3c4ccc(O)cc4CC[C@H]3[C@@H]1CC[C@@H]2O[C@@H]1O[C@H](C(=O)O)[C@@H](O)[C@H](O)[C@H]1O | Km (human OATP1B1 [2]; Km of the model substrate given in the Ki column (footnote *), mean ± SD): 5.9 ± 1.2 µM
11 | – | C[C@]12CC[C@@H]3c4ccc(OS(=O)(=O)O)cc4CC[C@H]3[C@@H]1CCC2=O [Estrone-3-sulfate] | Km (Oatp1a5): 268 µM; Km (OATP1B1): 2.4 µM; Ki (human OATP1B1 [3]): 0.2 ± 0.02 µM
12 | 1.2 ± 0.2 µM | C[C@H](CCC(=O)O)[C@H]1CC[C@H]2[C@@H]3CC[C@@H]4C[C@H](O)CC[C@]4(C)[C@H]3CC[C@]12C [Lithocholic acid] | –
13 | 3.4 ± 0.5 µM | C[C@H](CCC(=O)O)[C@H]1CC[C@H]2[C@@H]3[C@H](O)C[C@@H]4C[C@H](O)CC[C@]4(C)[C@H]3CC[C@]12C [Chenodeoxycholic acid] | –
14 | 2.2 ± 0.3 µM | CC#C[C@]1(O)CC[C@H]2[C@@H]3CCC4=CC(=O)CCC4=C3[C@@H](c3ccc(N(C)C)cc3)C[C@@]21C [Mifepristone] | –
15 | 3.3 ± 0.6 µM | C[C@]12CC[C@@H]3c4ccc(O)cc4CC[C@H]3[C@@H]1CC[C@@H]2O [Estradiol] | –
16 | 7.6 ± 1.9 µM | Clc1ccccc1C(c1ccccc1)(c1ccccc1)n1ccnc1 [Clotrimazole] | –
17 | 1.6 ± 0.11 µM | Cc1cccc(Nc2cc(Cl)nc(SCC(=O)O)n2)c1C [WY-14643] | –
18 | 21.8 ± 3.6 µM | CC[C@H](C)C(=O)O[C@H]1C[C@H](O)C=C2C=C[C@H](C)[C@H](CC[C@@H](O)C[C@@H](O)CC(=O)O)[C@H]21 [Pravastatin] | –

Row | SMILES | Ki (human OATP1B1 [1]) | other results
19 | C[C@@]12CCC[C@H]1[C@@H]1CC[C@H]3CCCC[C@]3(C)[C@H]1CC2 | 374 ± 123 µM | –
20 | NC(Cc1cc(I)c(Oc2cc(I)c(O)c(I)c2)c(I)c1)C(=O)O (centres unmarked) [Thyroxine] | 3.5 ± 0.7 µM | –
21 | C[C@H](CCC(=O)O)[C@H]1CC[C@H]2[C@@H]3[C@H](O)C[C@@H]4C[C@H](O)CC[C@]4(C)[C@H]3C[C@H](O)[C@]12C [Cholic acid] | 25 ± 3.3 µM | –
